Measurements as given in PubChem BioAssay (NCI).
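Five compound concentrations were applied to cells in 96-well plates for 48 hours; endpoints were derived by simple linear interpolation of the resulting dose-response curve. At the GI50, growth is halved. TGI denotes the concentration required for complete inhibition of growth.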

Columns and labels:
Test in all cases: growth of human tumour cells (NCI), 48 h
[1] = test system: HOP-92 NSCLC
[2] = test system: OVCAR-8 ovarian
[3] = test system: SK-MEL-28 melanoma
[4] = test system: A549 NSCLC
[5] = test system: COLO 205 colon
[6] = test system: SF-268 CNS
[7] = test system: RXF 393 renal
[8] = test system: SK-MEL-2 melanoma
[9] = test system: NCI-H522 lung
[10] = test system: MDA-MB-435

SMILES	TGI [1]	TGI [2]	TGI [3]	TGI [4]	TGI [5]	TGI [6]	TGI [7]	GI50 [1]	GI50 [2]	GI50 [3]	GI50 [8]	TGI [8]	GI50 [4]	GI50 [5]	GI50 [6]	GI50 [9]	TGI [9]	GI50 [7]	GI50 [10]	TGI [10]
O=C(CCl)N1CCN(c2ccccn2)CC1	36.3 µM	60.8 µM	41.6 µM	> 10 µM	47.4 µM	63.8 µM	41.6 µM	–	–	–	–	–	–	–	–	–	–	–	–	–
[pH]1p2[pH]p3p1p3[pH]2.c1cc[c]([Ge]([c]2ccccc2)[c]2ccccc2)cc1.c1cc[c]([Ge]([c]2ccccc2)[c]2ccccc2)cc1.c1cc[c]([Ge]([c]2ccccc2)[c]2ccccc2)cc1	29.8 µM	35.3 µM	25 µM	> 100 µM	26.2 µM	40.7 µM	> 100 µM	12.8 µM	13.5 µM	11.9 µM	19.4 µM	34.9 µM	25.4 µM	12.1 µM	16.4 µM	4.46 µM	17.8 µM	64.9 µM	–	–
CN1CCN(CCCCCOc2cc(O)c3c(=O)cc(-c4ccccc4)oc3c2)CC1	–	91.7 µM	4.25 µM	26.3 µM	3.06 µM	> 100 µM	5.97 µM	–	15.7 µM	2.22 µM	3.04 µM	8.76 µM	8.18 µM	1.63 µM	11.7 µM	2.59 µM	6.71 µM	1.96 µM	2.32 µM	5.33 µM
COc1cccc(N2C(=N)/C(=C3\Nc4ccccc4S3)CC2=O)c1	–	> 100 µM	> 100 µM	> 100 µM	> 100 µM	> 100 µM	11.1 µM	–	7.9 µM	> 100 µM	48.4 µM	> 100 µM	5.49 µM	9.25 µM	5.22 µM	8.22 µM	> 100 µM	2.61 µM	> 100 µM	> 100 µM
Cc1c(C(=O)/C=C/c2ccc([N+](=O)[O-])cc2)[n+](=O)c2ccccc2n1[O-]	> 100 µM	> 100 µM	> 100 µM	> 100 µM	> 100 µM	> 100 µM	> 100 µM	–	–	–	–	–	–	–	–	–	53.6 µM	–	–	–
Oc1ccc(I)c2cccnc12	> 100 µM	> 100 µM	> 100 µM	> 100 µM	79 µM	72.1 µM	33.1 µM	–	–	–	–	71.4 µM	–	–	–	–	7.2 µM	–	–	–
O=C(CC(=O)N1N=C(n2ccc3ccccc32)CC1c1ccccc1)Nc1ccccc1Cl (stereo unspecified)	> 100 µM	> 100 µM	> 100 µM	> 100 µM	> 100 µM	> 100 µM	> 100 µM	–	–	–	–	> 100 µM	–	–	–	–	> 100 µM	–	–	–
CN(C)C/C=C/C(=O)Nc1ccc(C(=O)Nc2cccc(Nc3ncc(Cl)c(-c4c[nH]c5ccccc45)n3)c2)cc1	–	> 100 µM	0.532 µM	> 100 µM	0.0562 µM	–	0.0397 µM	–	0.0428 µM	0.0215 µM	0.021 µM	0.0682 µM	0.0963 µM	0.0121 µM	–	0.0172 µM	0.094 µM	0.0157 µM	0.0352 µM	0.274 µM
NC(=S)N/N=C/C(O[C@@H](/C=N/NC(N)=S)CO)n1cnc2c(N)ncnc21 (stereo partly specified)	> 100 µM	> 100 µM	> 100 µM	> 100 µM	> 75.9 µM	> 100 µM	> 100 µM	–	–	–	–	–	–	–	–	–	> 72.4 µM	–	–	–
CC1CN1c1c(C(=O)/C=C/c2ccc(F)cc2)c(-c2ccccc2)nn(C)c1=O (stereo unspecified)	23.2 µM	27.6 µM	32 µM	47.5 µM	33 µM	30.4 µM	22 µM	–	–	–	–	37.9 µM	–	–	–	–	–	–	–	–
O=c1[nH]c(-c2ccccc2)nc2cc([N+](=O)[O-])c(/C(Cl)=C/c3ccccc3)cc12	35.6 µM	45.4 µM	> 100 µM	> 100 µM	79.9 µM	> 100 µM	72.7 µM	–	–	–	–	71.8 µM	–	–	–	–	81.7 µM	–	–	–
CC(=O)[CH-]C(=O)c1ccccc1.CC(=O)[CH-]C(=O)c1ccccc1.CC[C@H](CCC(C)[C@H]1CCC2[C@@H]3CC=C4C[C@@H]([O-])CC[C@]4(C)C3CC[C@@]21C)C(C)C.CC[C@H](CCC(C)[C@H]1CCC2[C@@H]3CC=C4C[C@@H]([O-])CC[C@]4(C)C3CC[C@@]21C)C(C)C.Cl.[Ti+4] (stereo partly specified)	–	> 25 µM	> 25 µM	> 25 µM	> 25 µM	> 25 µM	> 25 µM	–	–	–	–	> 25 µM	–	–	–	–	> 25 µM	> 25 µM	–	–
CC(=O)[CH-]C(=O)c1ccccc1.CC(=O)[CH-]C(=O)c1ccccc1.CC(=O)[CH-]C(=O)c1ccccc1.[Cl-].[Hf+4]	50.4 µM	> 100 µM	85.3 µM	> 100 µM	> 100 µM	> 100 µM	> 100 µM	18.9 µM	27.9 µM	23.6 µM	18.1 µM	53.2 µM	46.4 µM	34 µM	23.7 µM	26.5 µM	> 100 µM	47.4 µM	–	–
CC(=O)NNc1nc(C)c(C(=O)/C=C/c2ccc(N(C)C)cc2)s1	> 100 µM	> 100 µM	> 100 µM	> 100 µM	> 100 µM	> 100 µM	> 100 µM	–	–	–	–	> 100 µM	–	–	–	–	> 100 µM	–	–	–
O=C(CC(O)(C(F)(F)F)C(F)(F)F)c1cccs1	> 10 µM	> 10 µM	> 10 µM	> 10 µM	> 10 µM	> 10 µM	–	–	–	–	–	–	–	–	–	–	> 10 µM	–	–	> 10 µM
N#Cc1ncc(-c2ccc(C(F)(F)F)cc2)c(NC2CCCCCC2)n1	–	> 100 µM	> 100 µM	> 100 µM	62.1 µM	> 100 µM	> 100 µM	–	70.8 µM	71.5 µM	–	–	47.4 µM	13.2 µM	27.7 µM	6.02 µM	> 100 µM	5.12 µM	29.1 µM	> 100 µM
C=CCc1cc(OC)c(O)c(C(=O)/C=C/c2ccc(OC)c(OC)c2)c1	–	–	33.6 µM	> 100 µM	31.4 µM	53.1 µM	–	–	–	–	–	28.8 µM	–	–	–	–	7.08 µM	–	–	–
O=C(Nc1ccc(Nc2ccc(NC(=O)c3ccccc3)c3c2C(=O)c2ccccc2C3=O)c2c1C(=O)c1ccccc1C2=O)c1ccccc1	–	> 100 µM	> 100 µM	> 100 µM	> 100 µM	> 100 µM	> 100 µM	–	–	–	–	> 100 µM	–	–	–	–	> 100 µM	–	–	–
COc1ccc(C(=O)C(c2ccc(OC)cc2)C2(O)C(=O)Nc3c(Cl)cc(Cl)cc32)cc1 (stereo unspecified)	33.2 µM	56.2 µM	44.4 µM	54.9 µM	74.3 µM	> 100 µM	39.6 µM	–	–	–	–	31.5 µM	–	–	–	–	35.2 µM	–	–	–
CCN1CCCCCCCCCC(=N/O)/C(=N\O)C1	> 100 µM	> 100 µM	> 100 µM	> 100 µM	–	> 100 µM	> 100 µM	–	–	–	–	–	–	–	–	–	> 100 µM	–	–	> 100 µM

SMILES	TGI [1]	TGI [2]	TGI [3]	TGI [4]	TGI [5]	TGI [6]	TGI [7]	GI50 [1]	GI50 [2]	GI50 [3]	GI50 [8]	TGI [8]	GI50 [4]	GI50 [5]	GI50 [6]	GI50 [9]	TGI [9]	GI50 [7]	GI50 [10]	TGI [10]
CCP(C)(=O)CC	> 100 µM	> 100 µM	> 100 µM	> 100 µM	> 100 µM	> 100 µM	> 100 µM	–	–	–	–	> 100 µM	–	–	–	–	–	–	–	–
O=C1CC[C@@H](S(=O)(=O)c2ccccc2)[C@H](/C=C/c2ccccc2)O1	–	> 100 µM	> 100 µM	> 100 µM	> 100 µM	–	> 100 µM	–	–	–	–	–	–	–	–	–	> 100 µM	–	–	–
Cc1[nH]c2ccccc2c1/C=C/c1c(C)[nH]c2ccccc12	–	> 100 µM	> 100 µM	> 100 µM	–	–	> 100 µM	–	–	–	–	> 100 µM	–	–	–	–	–	–	–	–
Cc1cc(NS(=O)(=O)c2ccc(-c3cnc(C4CC4)o3)cc2)ccc1Cl	10.1 µM	17.7 µM	20 µM	14.9 µM	5.8 µM	19.9 µM	3.13 µM	0.472 µM	0.552 µM	2.87 µM	0.445 µM	20.3 µM	0.437 µM	0.305 µM	2.19 µM	0.0761 µM	3.38 µM	0.173 µM	–	–
Nc1nc2c(ncn2C2OC(CO)C(O)C2O)c(=O)o1 (stereo unspecified)	> 100 µM	> 100 µM	> 100 µM	> 100 µM	> 100 µM	> 100 µM	> 100 µM	–	–	–	–	> 100 µM	–	–	–	–	> 100 µM	–	–	–
CCOC(=O)C1(C)C2=CC=C(O2)C(C)(C)C2=CC=C(O2)C(C)(C)C2=CC=C(O2)C(C)(C)C2=CC=C1O2	> 100 µM	> 100 µM	> 100 µM	> 100 µM	> 100 µM	> 100 µM	> 100 µM	–	–	–	–	> 100 µM	–	–	–	–	> 100 µM	–	–	–
Cc1ccc(/C=C(/C#N)n2nnc3cccc(F)c32)cc1	4.75 µM	> 100 µM	18.1 µM	44.5 µM	3.3 µM	12.5 µM	0.563 µM	0.309 µM	0.594 µM	0.902 µM	0.522 µM	19 µM	0.696 µM	0.387 µM	0.58 µM	0.194 µM	14.9 µM	0.201 µM	–	–
Cc1cc(C)c([O-])c(-[n+]2c(-c3ccccc3)cc(-c3ccccc3)cc2-c2ccccc2)c1	5.48 µM	17.7 µM	14.2 µM	28 µM	12.2 µM	21.5 µM	20.2 µM	–	–	–	–	10.2 µM	–	–	–	–	–	–	–	–
NNC(=O)N/N=C(/CC1(O)C(=O)Nc2ccc(Br)cc21)c1ccccc1 (stereo unspecified)	63.8 µM	–	> 100 µM	> 100 µM	–	> 100 µM	–	–	–	–	–	85.2 µM	–	–	–	–	46.6 µM	–	–	–
O=C1C=C(Nc2cc(Cl)ccc2Cl)c2ccccc2C1=O	69.7 µM	56.9 µM	> 100 µM	> 100 µM	> 100 µM	> 100 µM	> 100 µM	–	–	–	–	33.9 µM	–	–	–	–	–	–	–	–
CN(C)CC1CCCC/C1=N\OC(=O)c1ccccc1 (stereo unspecified)	> 100 µM	> 100 µM	> 100 µM	> 100 µM	> 100 µM	> 100 µM	> 100 µM	–	–	–	–	> 100 µM	–	–	–	–	> 100 µM	–	–	–
CS(=O)(=O)ON1C(=O)c2ccc(N)cc2C1=O	> 100 µM	60.8 µM	> 88.6 µM	> 100 µM	> 100 µM	> 95.7 µM	> 71 µM	–	–	–	–	> 100 µM	–	–	–	–	43.2 µM	–	–	–
[CH3][Ge]([CH3])([CH2]CC#N)[S]c1ccccc1	79.7 µM	46.5 µM	65.1 µM	> 100 µM	52.4 µM	51.6 µM	27 µM	31.2 µM	11.5 µM	16.5 µM	14.7 µM	39.6 µM	2.19 µM	17.5 µM	18.6 µM	3.31 µM	11.1 µM	11.8 µM	–	–
C=C1C2CCCC1C1(S(C)(=O)=O)CCCCC21O (stereo unspecified)	–	> 100 µM	> 100 µM	> 100 µM	> 100 µM	–	–	–	–	–	–	> 100 µM	–	–	–	–	> 100 µM	–	–	–
COC12OCCN(C)C1=CC(=O)C1N=NCC12 (stereo unspecified)	> 100 µM	> 100 µM	> 100 µM	> 100 µM	> 100 µM	–	> 100 µM	–	–	–	–	–	–	–	–	–	> 100 µM	–	–	–
COC1(OC)CCC2(C)OC(c3ccccc3)C1O2 (stereo unspecified)	–	> 100 µM	> 100 µM	> 100 µM	> 100 µM	> 100 µM	> 100 µM	–	–	–	–	> 100 µM	–	–	–	–	> 100 µM	–	–	–
NC(N)=NCCCC(Nc1c2ccccc2nc2ccccc12)C(=O)O (stereo unspecified)	> 100 µM	> 100 µM	> 100 µM	> 100 µM	> 100 µM	> 100 µM	> 100 µM	–	–	–	–	> 100 µM	–	–	–	–	> 100 µM	–	–	–
COc1c(CC(C)=O)c2ccccc2n1C(C)=O	> 100 µM	> 100 µM	> 100 µM	> 100 µM	> 100 µM	–	> 100 µM	–	–	–	–	> 100 µM	–	–	–	–	–	–	–	–
Cc1cc(NS(=O)(=O)c2ccc(NC(=O)c3cccc4c(Nc5ccc(S(=O)(=O)Nc6cc(C)on6)cc5)c5ccc(Cl)cc5nc34)cc2)no1	80.5 µM	> 100 µM	> 100 µM	> 100 µM	> 100 µM	> 100 µM	> 100 µM	–	–	–	–	> 100 µM	–	–	–	–	> 100 µM	–	–	–
